# Where two headings read alike, the source gives them in different places.
# Tested on: HCT116 cells
# Assay: ATPlite cell viability after drug treatment, HCT116 cells in cell-line or organoid culture media
# Assay type: cell-based
# Parameters: AUC 1st / AUC 2nd / AUC 3rd / AUC Average: unit not given here
# Procedure: Advanced DMEM/F12+++ (hereinafter referred to as “Ad/DF+++”) was used to produce colorectal cancer organoids. Ad/DF+++ was refrigerated at 4° C. until use, and was used in a cold state during cell washing. Ad/DF+++ medium containing the reagents shown in Table 1 below along with Ad/DF 1× (Gibco) was prepared.
# After preparing the Ad/DF+++ medium containing the above reagents, an appropriate amount of Matrigel (Corning #356231) was added so that the ratio between Matrigel and cells suspended in the Ad/DF+++ medium was 7:3. Then, the cells were plated on low attachment well plates at an appropriate density. The density and the type and number of well plates were determined according to the characteristics of each cell type. The medium was prepared according to the composition shown in Table 2 below, and the cells were cultured (expanded) until the required level was reached while the medium was replaced every 3 to 4 days.
# If the organoids were expanded as needed for the experiment, the medium was carefully removed, taking care not to touch the Matrigel. The cells were separated from the Matrigel by pipetting about 20 times with 1 ml of cold Ad/DF+++. The cells in 1 to 4 wells per 6-well plate were collected in one 50 ml tube. If cells are collected from more than 4 wells into one tube, the Metrigel may not be washed properly. For this reason, the cells were placed in several tubes. Thereafter, Ad/DF+++ was poured to 20 to 50 ml of each tube, followed by centrifugation at 400 g for 3 minutes at 4° C. The cells were dissociated with 1 to 2 mL of TrypLE™ Express Enzyme (Gibco, 1264-013), transferred to low-attachment 24 well plates, and then treated with 10 μM of Y-27632. Next, the cells were cultured in a CO2 incubator for 5 minutes at 37° C. After pipetting about 20 times, whether the cells would be dissociated into single cells was checked by microscopic observation. If the cells were not dissociated into single cells, the culture under CO2 and pipetting processes were repeated. After the single cells were transferred into 15-ml tubes, Ad/DF+++ was filled to 10 to 15 ml of each tube, followed by centrifugation at 400 g at 4° C. for 3 minutes. After suspending the pellet in Ad/DF+++, the cells were counted and diluted with medium according to the required number of cells.
# 12 hours after seeding in Experimental Example 1-2 above, the medium was changed with the medium shown in Table 3 below, followed by culturing to produce organoids.
# Four hours after the medium change, the cells were treated with oxaliplatin, 5-FU, Irinotecan, and folinic acid. Five days after drug treatment, intracellular ATP expression was determined using the ATPlite assay kit (PerkinElmer), and the data were expressed in terms of cell viability, IC50, and AUC.
# As the standard for confirming that cells are sensitive to the drug, the response of the cells to the drug was assumed to be 100%, and the luminescence value of surviving cells after drug treatment was analyzed and compared with the quantified drug response value.
# Based on the assumption that the factor that increases the resistance of the organoids to oxaliplatin is an activator or inhibitor that changes the phenotype, the organoids prepared by excluding some or all of activators and inhibitors as shown in Table 4 below were treated with oxaliplatin.
# In order to identify the factors that reduce the resistance to oxaliplatin of the Ex2 organoid, activators or inhibitors that change the phenotype were added one by one to the Ex2 organoid composition, thus producing organoids as shown in Table 8 below. Then, it was checked whether the produced organoids had increased resistance to oxaliplatin.
smiles,measurement,setting,value
O=C1[O][Pt]2([NH][C@@H]3CCCC[C@H]3[NH]2)[O]C1=O [oxaliplatin],"AUC value, Ex2 compared with Ex1","HCT116, FIG. 3",significantly lower AUC values than those of Ex1
same,"AUC value, Ex3 and Ex4 compared with Ex1","HCT116, FIG. 3",lower AUC values than Ex1
same,"IC50 value, Ex2 compared with Ex1","HCT116, FIG. 4",similarly lowered in Ex2 compared to Ex1
same,cell viability versus oxaliplatin concentration,"HCT116, McCoys control, Ex1, Ex2, FIG. 5",similarly lowered in the control (McCoys) HCT116 cells and the cells cultured under the organoid culture conditions of Ex2
same,AUC 1st,"HCT116 cell line in McCoys (control), 1st",312.3
same,IC50,"HCT116 cell line in McCoys (control), 1st, read-out: IC50 (μM) 1st",24.1 µM
same,AUC 2nd,"HCT116 cell line in McCoys (control), 2nd",278.4
same,IC50,"HCT116 cell line in McCoys (control), 2nd, read-out: IC50 (μM) 2nd",10.7 µM
same,AUC 3rd,"HCT116 cell line in McCoys (control), 3rd",307.3
same,IC50,"HCT116 cell line in McCoys (control), 3rd, read-out: IC50 (μM) 3rd",28.8 µM
same,AUC Average,"HCT116 cell line in McCoys (control), average",299.3
same,IC50,"HCT116 cell line in McCoys (control), average, read-out: IC50 (μM) Average",21.2 µM
same,AUC 1st,"HCT116 in Ex1 (all inhibitors and activators), 1st",379.7
same,IC50,"HCT116 in Ex1 (all inhibitors and activators), 1st, read-out: IC50 (μM) 1st",133 µM
same,AUC 2nd,"HCT116 in Ex1, 2nd",379.9
same,IC50,"HCT116 in Ex1, 2nd, read-out: IC50 (μM) 2nd",98 µM
same,AUC 3rd,"HCT116 in Ex1, 3rd",390.0
same,IC50,"HCT116 in Ex1, 3rd, read-out: IC50 (μM) 3rd",167 µM
same,AUC Average,"HCT116 in Ex1, average",383.2
same,IC50,"HCT116 in Ex1, average, read-out: IC50 (μM) Average",133 µM
same,AUC 1st,"HCT116 in Ex2 (no inhibitors, no activators), 1st",319.8
same,IC50,"HCT116 in Ex2 (no inhibitors, no activators), 1st, read-out: IC50 (μM) 1st",27.8 µM
same,AUC 1st,"HCT116 in Ex2-1 (Ex2 + A83-01 500 nM), 1st",328.0
same,IC50,"HCT116 in Ex2-1 (Ex2 + A83-01 500 nM), 1st, read-out: IC50 (μM) 1st",46 µM
same,AUC 2nd,"HCT116 in Ex2-1, 2nd",341.6
same,IC50,"HCT116 in Ex2-1, 2nd, read-out: IC50 (μM) 2nd",52.2 µM
same,AUC 3rd,"HCT116 in Ex2-1, 3rd",342.0
same,IC50,"HCT116 in Ex2-1, 3rd, read-out: IC50 (μM) 3rd",81.8 µM
same,AUC Average,"HCT116 in Ex2-1, average",337.2
same,IC50,"HCT116 in Ex2-1, average, read-out: IC50 (μM) Average",60 µM
same,AUC 1st,"HCT116 in Ex2-2 (Ex2 + Y-27632 10 μM), 1st",284.9
same,IC50,"HCT116 in Ex2-2 (Ex2 + Y-27632 10 μM), 1st, read-out: IC50 (μM) 1st",13 µM
same,AUC 2nd,"HCT116 in Ex2-2, 2nd",320.5
same,IC50,"HCT116 in Ex2-2, 2nd, read-out: IC50 (μM) 2nd",38.4 µM
same,AUC 3rd,"HCT116 in Ex2-2, 3rd",301.0
same,IC50,"HCT116 in Ex2-2, 3rd, read-out: IC50 (μM) 3rd",16 µM
same,AUC Average,"HCT116 in Ex2-2, average",302.1
same,IC50,"HCT116 in Ex2-2, average, read-out: IC50 (μM) Average",22.5 µM
same,AUC 1st,"HCT116 in Ex2-3 (Ex2 + SB 202190 10 μM), 1st",306.6
same,IC50,"HCT116 in Ex2-3 (Ex2 + SB 202190 10 μM), 1st, read-out: IC50 (μM) 1st",30.2 µM
same,AUC 2nd,"HCT116 in Ex2-3, 2nd",343.3
same,IC50,"HCT116 in Ex2-3, 2nd, read-out: IC50 (μM) 2nd",63.4 µM

# From patent US20250102494A1, “COMPOSITION FOR PREDICTING OXALIPLATIN DRUG EFFICACY, AND USE THEREOF” (SAMSUNG LIFE PUBLIC WELFARE FOUNDATION, priority 2022, published 2025)
